{"source": "paper PMC13047053", "about": "“Crystal structure of human INPP5K with an allosteric inhibitor reveals the structural basis for species specific potency” (Scientific Reports, 2026)", "molecular_target": "T1, human SHIP2 (Homo sapiens, UniProt O15357)", "T1 construct": "full-length human SHIP2 (aa 1–1 258) containing a C-terminal FLAG-tag; FLAG (C); made in house; host or cells: Expi293 cells (pcDNA3.4, transient)", "T1 sequence (O15357 1-1258)": "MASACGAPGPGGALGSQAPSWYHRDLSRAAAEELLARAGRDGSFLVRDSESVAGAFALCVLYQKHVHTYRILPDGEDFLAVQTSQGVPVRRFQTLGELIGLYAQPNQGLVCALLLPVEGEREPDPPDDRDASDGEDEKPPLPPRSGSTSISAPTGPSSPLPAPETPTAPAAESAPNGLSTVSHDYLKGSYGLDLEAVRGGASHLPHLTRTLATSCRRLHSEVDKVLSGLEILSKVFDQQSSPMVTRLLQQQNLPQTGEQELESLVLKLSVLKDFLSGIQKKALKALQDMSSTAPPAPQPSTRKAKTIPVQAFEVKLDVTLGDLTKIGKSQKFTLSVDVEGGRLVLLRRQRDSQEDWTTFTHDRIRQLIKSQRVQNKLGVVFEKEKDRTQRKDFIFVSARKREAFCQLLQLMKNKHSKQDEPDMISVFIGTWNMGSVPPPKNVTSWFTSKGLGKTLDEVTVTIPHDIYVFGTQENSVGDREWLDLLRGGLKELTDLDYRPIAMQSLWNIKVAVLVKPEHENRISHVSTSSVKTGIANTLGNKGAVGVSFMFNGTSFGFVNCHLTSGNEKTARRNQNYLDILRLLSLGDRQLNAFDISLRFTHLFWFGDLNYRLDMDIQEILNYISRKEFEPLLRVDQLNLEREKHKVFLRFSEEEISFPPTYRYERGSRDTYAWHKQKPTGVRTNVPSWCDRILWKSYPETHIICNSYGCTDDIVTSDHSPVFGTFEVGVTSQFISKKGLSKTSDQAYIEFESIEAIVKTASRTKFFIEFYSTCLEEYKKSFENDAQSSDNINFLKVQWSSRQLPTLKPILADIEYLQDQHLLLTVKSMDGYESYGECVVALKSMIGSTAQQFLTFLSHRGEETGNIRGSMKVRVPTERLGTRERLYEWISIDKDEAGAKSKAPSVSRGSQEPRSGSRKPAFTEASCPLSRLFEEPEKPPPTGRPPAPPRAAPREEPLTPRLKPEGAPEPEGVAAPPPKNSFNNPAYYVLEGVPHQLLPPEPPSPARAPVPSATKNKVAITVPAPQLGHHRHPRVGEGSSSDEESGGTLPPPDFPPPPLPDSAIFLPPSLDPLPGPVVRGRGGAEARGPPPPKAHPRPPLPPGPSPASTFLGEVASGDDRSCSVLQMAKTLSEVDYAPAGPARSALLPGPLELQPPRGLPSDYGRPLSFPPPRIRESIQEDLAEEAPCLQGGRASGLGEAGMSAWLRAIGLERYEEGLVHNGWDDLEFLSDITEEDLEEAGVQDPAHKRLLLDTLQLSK", "assay": "Inorganic phosphate detection assay for phosphatase inhibition", "format": "biochemical", "settings": "20 µM diC8-PI(3,4,5)P3, 20 min", "excerpt": "The protein purification is described in detail elsewhere. Briefly, full-length human INPP5K (amino acids 1–448, UniProt ID: Q9BT40), rat INPP5K (aa 1–446, UniProt ID: Q9R0B6), mouse INPP5K (aa 1–468, UniProt ID: Q8C5L6), hamster INPP5K (aa 1–453, UniProt ID: G3HTF6), guinea pig INPP5K (aa 1–473, UniProt ID: H0V8T7) containing an N-terminal FLAG-tag, full-length human SHIP2 (aa 1–1 258) containing a C-terminal FLAG-tag, and full-length human PIPP (amino acids 1–1 006) containing an N-terminal His8-tag were all cloned into the pcDNA3.4 expression vector and transiently expressed in Expi293 cells (Thermo Fisher Scientific). The PH domain of human TAPP1 (amino acids 180–404) containing an N-terminal GST-tag was expressed in a pGEX6P1 expression vector (GE Healthcare) in E. coli strain BL21 ((Merck KGaA, Darmstadt, Germany)), following IPTG induction at 37 °C for 5 h. All the FLAG-tagged INPP5Ks and hSHIP2 were purified using affinity columns containing DDDDK-tagged protein purification gel (MBL, Medical & Biological Laboratories Co., Ltd., Tokyo, Japan), followed by size-exclusion chromatography with Superdex 200 columns (GE Healthcare). His8-tagged hPIPP was purified using Ni–NTA Superflow (Qiagen) and Superdex 200 columns. The GST-tagged hTAPP1 domain was purified using a Glutathione Sepharose 4B (GE Healthcare) and Superdex 200 columns. The purity of the protein obtained was evaluated using SDS-PAGE.\nThe release of inorganic phosphate was measured using a PiPer Phosphate Assay Kit (Thermo Fisher Scientific), according to the manufacturer’s instructions, but with some modifications. Enzyme reactions were performed in a final volume of 10 µL per well in a 384-well nonbinding black plates (Greiner Bio-One International, GmbH, Kremsmünster, Austria). The reaction mixtures containing 20 µM diC8-PI(3,4,5)P₃ and each enzyme (human INPP5K, mouse INPP5K, rat INPP5K, hamster INPP5K, guinea pig INPP5K, human SHIP2, or human PIPP) in reaction buffer (50 mM Tris–HCl pH 7.0, 150 mM NaCl, 7.5 mM MgCl₂, 0.03% Igepal CA-630, 0.03% gelatin), with or without various concentrations of inhibitor, were incubated for 20 min at room temperature. The reactions were then stopped and detection reactions were initiated by adding 5 µL of detection mix 1 (60 mM EDTA, 12 U/mL maltose phosphorylase, and 0.6 mM maltose in 100 mM Tris–HCl pH 8.0). After incubation for 60 min at room temperature, 5 µL of detection mix 2 (8 U/mL glucose oxidase, 0.8 U/mL HRP, and 100 µM Amplex Red in 100 mM Tris–HCl pH 8.0) was added, and the mixture was incubated for a further 30 min at room temperature in the dark. The fluorescence generated was measured using an Envision plate reader at 531/590 nm (excitation/emission), and the percentage inhibition was calculated as described above."}
{"smiles": "CC(C)c1sc(NC(=O)c2ccccc2)c(C(=O)O)c1-c1ccccc1", "note": "[CPD-1]", "values": [{"measurement": "IC50", "value": "> 100", "unit": "µM"}]}
